The test system of one data set is A. palaestina. As to the kind of experiment: Seed germination after gibberellic acid pre-soak. Format: in vivo, Adonis palaestina. How it is done:
Adonis […] populations were evaluated for seed viability and germination. Although seed viability is fair (about 30 to about 70%), germination is very low.

Data set [1] relates to Adonis. The settings on record: at high pH.
Description: Container trials were conducted on the effect of sand content and soil pH on metribuzin-associated Adonis mortality.
For another data set, the system named is Sclerotinia sclerotiorum. The data set can be described thus: Dosage effect of pure cardenolides on pathogen growth (Sclerotinia). Format: cell-based. Particulars: pure cardenolide. On the procedure: Two different cardenolides (cymarin and strophanthidin) were assessed for their dosage effect on pathogen response.
A short description of data set [2]: Rainbow trout feeding trial: astaxanthin levels in fillets before and after freezing and smoking. Format: in vivo. The settings on record: rainbow trout, fillet (flesh), oral, Control treatment, averaged over three fillet zones, read-out: HPLC astaxanthin level Average. On the procedure:
(§1) Rainbow trout fed synthetic or Adonis-derived astaxanthin in a feeding trial were harvested 63 days after the feeding trial started and the astaxanthin levels were examined spectrophotometrically (Minolta Chroma Meter) and chemically (by HPLC analysis after lipid removal from the flesh extract) before and after freezing (2 months) and smoking. The initial astaxanthin levels in the feed were adjusted to achieve similar levels of pigmentation of the fish before treatments were carried out. Because pigment levels vary along the length of the fish, measurements were carried out at three positions along each fish (head, mid-body and tail).

The subject of another data set is Rainbow trout. Described as above. The settings on record: averaged over three fillet zones. The class given is in vivo. On the procedure: as §1
The subject of a further data set is Adonis seedlings. The source says: Seedlings emerging from metribuzin-treated soil were sprayed with a grass-specific herbicide [graminicide; (RS)-7-(4,6-dimethoxypyrimidin-2-ylthio)-3-methyl-2-benzofuran-1(3H)-one] at the seed leaf stage; this would normally be expected to “check” the seedlings (i.e.; cause a degree of non-lethal stress) when applied at the usual time (three true leaf stage).

The test system of data set [3] is Weed. As to the kind of experiment: Pre-emergence herbicide trial: weed control. The class given is in vivo.
The subject of data set [4] is Adonis. As to the kind of experiment: Pre-emergence herbicide trial: Adonis seedling establishment. The settings on record: for Adonis seedling density: after graminicide stress treatment. Format: in vivo, Adonis palaestina.
Data set [5] has as its system Weed. As to the kind of experiment: Container trials: weed control at reduced metribuzin level. Format: in vivo.
Where [6] appears, read: 25 % manufacturer's recommended rate.
Where [7] appears, read: 50 % manufacturer's recommended rate.
Setting [8] is: 12.5 % manufacturer's recommended rate.

The structures appear in SMILES notation. Where two headings read alike, the source gives them in different places. Marks after values point to notes of the source that are not given here.

For `C=C1C[C@]23C[C@@]1(O)CC[C@H]2[C@@]12C=C[C@H](O)[C@@](C)(C(=O)O1)[C@H]2[C@@H]3C(=O)O` [Gibberellic acid, gibberellic acid], the germination entry with A. palaestina (24-hour incubation with GA in ethanol at room temperature) was “further improved germination”; with A. palaestina (pre-soaking seed in 5000 ppm for 24 hours before sowing), 64.7%. The “% germination” value in the data set with A. palaestina (1000 ppm, pre-soak 24 hours, 4 °C) worked out at 4.3%; in the data set on A. palaestina (1000 ppm, pre-soak 24 hours, 16 °C), 8.7%; with A. palaestina (1000 ppm, pre-soak 48 hours, 4 °C) it was 13.7%; in the data set on A. palaestina (1000 ppm, pre-soak 48 hours, 16 °C), 22.3%; in the data set with A. palaestina (2000 ppm, pre-soak 24 hours, 4 °C) it was 10.7%; in the data set on A. palaestina (2000 ppm, pre-soak 24 hours, 16 °C), 12.6%. For the same molecule, the “% germination” value with A. palaestina (2000 ppm, pre-soak 48 hours, 4 °C) was determined as 20.4%; with A. palaestina (2000 ppm, pre-soak 48 hours, 16 °C), 28.7%; in the data set with A. palaestina (3500 ppm, pre-soak 24 hours, 4 °C), 21.4%; in the data set on A. palaestina (3500 ppm, pre-soak 24 hours, 16 °C), 25.7%; in the data set with A. palaestina (3500 ppm, pre-soak 48 hours, 4 °C), 28.7%; in the data set with A. palaestina (3500 ppm, pre-soak 48 hours, 16 °C), 45.7%. The “% germination” value turned out to be 28.0% with A. palaestina (5000 ppm, pre-soak 24 hours, 4 °C); 34.7% in the data set with A. palaestina (5000 ppm, pre-soak 24 hours, 16 °C); 40.3% with A. palaestina (5000 ppm, pre-soak 48 hours, 4 °C); 64.7% in the data set with A. palaestina (5000 ppm, pre-soak 48 hours, 16 °C).
As to `CCOP(=S)(OCC)Oc1nc(Cl)n(C(C)C)n1` [isazophos, O-(5-Chloro-1-(1-methylethyl)-1H-1,2,4-triazol-3-yl) O,O-diethyl phosphorothioate], the “interaction with metribuzin (Adonis mortality)” value with Adonis [1] is listed as “negative interaction”.
`CO[C@H]1C[C@H](O[C@H]2CC[C@]3(C=O)[C@H]4CC[C@]5(C)[C@@H](C6=CC(=O)OC6)CC[C@]5(O)[C@@H]4CC[C@]3(O)C2)O[C@H](C)[C@H]1O` [cymarin]: in the data set with Sclerotinia sclerotiorum, the “growth of Sclerotinia” value is “inhibited”.
As for `CC1=C(/C=C/C(C)=C/C=C/C(C)=C/C=C/C=C(C)/C=C/C=C(C)/C=C/C2=C(C)C(=O)C(O)CC2(C)C)C(C)(C)CC(O)C1=O` (stereo not drawn) [Synthetic, 3,3′-dihydroxy-β,β-carotene-4,4′-dione], the concentration at 63 days in data set [2] worked out at 15100 ng/g. The “Spectrophotometric (Hunter a values) Average” value is listed as 6.5 in the data set on Rainbow trout (Control treatment, harvested 63 days); 4.2 with Rainbow trout (Frozen (2 months)); 5.8 in the data set with Rainbow trout (Smoked). Moreover, the results for the “HPLC astaxanthin level Average” value in the data set with Rainbow trout (Frozen (2 months)) and in the data set on Rainbow trout (Smoked) were 11.2 mg/kg fish and 14.0 mg/kg fish, respectively.
For `NC(N)=O` [Urea, urea], the Adonis density in the data set with Adonis seedlings (Metribuzin 0 g/ha, −Graminicide, +Urea) is 95 # plants m^−2.
As to `COC(=O)NS(=O)(=O)c1ccc(N)cc1` [Asulox ®, methyl(4-aminophenyl)sulfonylaminoformate], the Weed density in the data set with Weed [3] (setting [6]) is on record as 86 % cover; with Weed [3] (setting [7]) it was 74 % cover; in the data set on Weed [3] (100 % manufacturer's recommended rate), 87 % cover. In addition, the weed control entry in the data set on Weed [3] (pre-emergence herbicide) is on record as “did not achieve much weed control”.
On to `C[C@]12CC[C@H]3[C@@H](CC[C@]4(O)C[C@@H](O)CC[C@]34C=O)[C@@]1(O)CC[C@@H]2C1=CC(=O)OC1` [strophanthidin], for which, in the data set on Sclerotinia sclerotiorum, the “growth of Sclerotinia” value is “inhibited”.
With `CSc1nnc(C(C)(C)C)c(=O)n1N` [Metribuzin, 4-amino-6-tert-butyl-4,5-dihydro-3-methlythio-1,2,4-triazin-5-one], the results for the Adonis seedling density with Adonis [4] (setting [8]), in the data set on Adonis [4] (setting [6]) and in the data set on Adonis [4] (setting [7]) were 12.1 m^−2, 5.9 m^−2 and 1.2 m^−2, respectively. The “safety on Adonis” value with Adonis [4] (pre-emergence herbicide) was “could be used safely on Adonis”. Besides, the Weed density in the data set on Weed [3] (setting [8]) is listed as 85 % cover; in the data set on Weed [3] (setting [6]), 79 % cover; in the data set with Weed [3] (setting [7]) it was 56 % cover. In addition, the weed control result is listed as “inadequate” in the data set with Weed [5] (125 g/ha) and “reasonable weed control” in the data set with Weed [5] (250 g/ha). Besides, the seedling death in the data set with Adonis seedlings (500 g/ha metribuzin, graminicide sprayed at seed leaf stage) was 30%. Further, the Adonis density in the data set on Adonis seedlings (Metribuzin 250 g/ha, +Graminicide, −Urea) was 97 # plants m^−2; in the data set on Adonis seedlings (Metribuzin 250 g/ha, −Graminicide, +Urea) it was 107 # plants m^−2; in the data set on Adonis seedlings (Metribuzin 250 g/ha, −Graminicide, −Urea), 103 # plants m^−2; in the data set on Adonis seedlings (Metribuzin 500 g/ha, +Graminicide, +Urea), 94 # plants m^−2; in the data set with Adonis seedlings (Metribuzin 500 g/ha, +Graminicide, −Urea) it was 65 # plants m^−2; in the data set on Adonis seedlings (Metribuzin 500 g/ha, −Graminicide, +Urea) it was 104 # plants m^−2. Further, the Adonis density with Adonis seedlings (Metribuzin 500 g/ha, −Graminicide, −Urea) is listed as 98 # plants m^−2; in the data set on Adonis seedlings (Metribuzin (pre) + 250 (post) g/ha, +Graminicide, +Urea) it was 107 # plants m^−2; in the data set on Adonis seedlings (Metribuzin (pre) + 250 (post) g/ha, +Graminicide, −Urea), 105 # plants m^−2; in the data set with Adonis seedlings (Metribuzin (pre) + 250 (post) g/ha, −Graminicide, +Urea) it was 102 # plants m^−2; in the data set with Adonis seedlings (Metribuzin (pre) + 250 (post) g/ha, −Graminicide, −Urea), 100 # plants m^−2.

(Values after patent US7595171B2 (Sinotrade Technology Limited, priority 2005, dated 2009).)
